Marks after values point to notes of the source that are not given here.
How the values were obtained:
SHR [1] = experiment: Hypotensive activity in SHR by single administration of test compound (tail-cuff method); format: in vivo, rats; settings: SHR about 40 weeks old, fasted overnight; for decrease of the systolic blood pressure: 200 mg/kg orally once, 2 hours after administration in comparison with before administration; for rate of change of the blood pressure: 200 mg/kg orally, single dose, 2 hours after administration against before administration
Description: The phenoxyacetic acid derivatives (I) and pharmaceutically acceptable salts thereof, which are the active ingredient for use in the preparation of the hypotensive agent have an excellent hypotensive activity.
A suspension of a test compound in water containing a small amount of Tween 80 was administered orally in a volume of 1 ml/100 g of rat's weight (a dose of the test compound: 200 mg/kg) to SHR (about 40 weeks old, 4 to 6 rats/group) fasted overnight. The blood pressure before and after administration of the test compound were measured noninvasively by the tail-cuff method, and estimated the rate of the change of the blood pressure 2 hours after administration of the test compound against the blood pressure before administration of the test compound. In both of test compound No. (1) and No. (2), the rate of change of the blood pressure was about -13 %.

SHR [2] = experiment: Antihypertensive activity in SHR, repeated administration (tail-cuff method); format: in vivo, rats; settings: for Systolic blood pressure: SHR 5 weeks old
Description: (§1) A suspension of the test compound (1) in water containing a small amount of Tween 80 was administered orally in a volume of 10 ml/kg (a dose of the test compound: 100 mg/kg/day) once a day for 4 weeks to SHR (5 weeks old, weight; about 100 g, 10 rats/group) in the test compound-administered group. On the other hand, the same amount of water containing a small amount of Tween 80 was administered to the rats in control group instead of the suspension of the test compound (1). The systolic blood pressure of rats of the both groups was measured once a week until the fifth week by the tail-cuff method.

DOCA-salt rats = experiment: Antihypertensive activity on progressive hypertension in DOCA-salt rats (tail-cuff method); format: in vivo, male SD rats; settings: for Systolic blood pressure: 50 mg/kg/day orally once a day for 4 weeks
Description: (§2) A left kidney was taken out from male SD rats (6 weeks old, weight; about 200 g, 10 rats/group), and 1 week later, silicon resin containing 150 mg/kg of deoxycorticosterone acetic acid (DOCA) was embedded in subcutaneous tissue at the back of each rat under ether anesthesia. After operation, the rats were provided with water containing 1 % sodium chloride and 0.2 % potassium chloride as drinking water in order to produce DOCA-salt rats. From the next day after operation of embedding the silicon resin containing DOCA, a suspension of the test compound (I) in water containing a small amount of Tween 80 was administered orally in a volume of 10 ml/kg (a dose of the test compound: 50 mg/kg/day) once a day for 4 weeks in the test compound-administered group. On the other hand, the same amount of water containing a small amount of the Tween 80 was administered in the control group instead of the suspension of the test compound (1). The systolic blood pressure of rats in the both groups was measured once a week until the fourth week by the tail-cuff method.

[3] = test system: established DOCA-salt hypertensive rats; experiment: Antihypertensive activity in DOCA-salt rats in the established hypertension condition (tail-cuff method); format: in vivo
Description: as §2, §1
The DOCA-salt loaded rats being in the stable hypertensive condition were obtained by feeding the DOCA-salt loaded rats used in Experiment 2 with tap water instead of aqueous salt solution for 6 weeks. Using these established DOCA-salt hypertensive rats (8 rats/group), the same experiments were carried out as Experiment 3 except that the dose of the test compound (1) was 50 mg/kg/day, the period of administration was 3 weeks, and the systolic blood pressure was measured until the fourth week after administration.

established-SHR = experiment: Antihypertensive activity in SHR in the established hypertension condition (tail-cuff method); format: in vivo, rats; settings: for Systolic blood pressure: 100 mg/kg/day orally once a day for 3 weeks, established-SHR 18 weeks old
Description: as §1
Using the SHR being in the established hypertension (established-SHR, 18 weeks old, weight; 300 to 375 g, 8 rats/group), the same procedures were carried out as Experiment 3 except that the period of administration of the test compound (1) was 3 weeks, and the systolic blood pressure was measured until the third week after administration.

In the case of CCn1nccc1C(=O)c1ccc(OCC(=O)O)c(Cl)c1Cl [[2,3-dichloro-4(1-ethyl-5-pyrazolylcarbonyl)phenoxy]acetic acid], the “decrease of the systolic blood pressure” value (SHR [1]) is reported as “about 13%”.
In the case of CCn1nccc1C(=O)c1ccc(OCC(=O)O)c(Cl)c1Cl [(1), [2,3-dichloro-4-(1-ethyl-5-pyrazolylcarbonyl)phenoxy]acetic acid], the “increase of blood pressure as compared with control group” value (SHR [2]; 100 mg/kg/day orally for 4 weeks, result in words) is reported as “inhibited significantly from the first week after administration”, the Systolic blood pressure (SHR [2]; day 0, 100 mg/kg/day orally once a day for 4 weeks) is reported as 131.2 mmHg and the Systolic blood pressure (SHR [2]; day 7, 100 mg/kg/day orally once a day for 4 weeks) is reported as 141.0** mmHg. For the same compound, the Systolic blood pressure (SHR [2]; day 14, 100 mg/kg/day orally once a day for 4 weeks) was 161.9** mmHg, the Systolic blood pressure (SHR [2]; day 21, 100 mg/kg/day orally once a day for 4 weeks) was 175.4** mmHg and the Systolic blood pressure (SHR [2]; day 28, 100 mg/kg/day orally once a day for 4 weeks) was 185.2** mmHg. For the same compound, the Systolic blood pressure (SHR [2]; day 35 (one week after the 4-week dosing), 100 mg/kg/day orally) was 198.4** mmHg, the “increase of blood pressure as compared with control group” value (DOCA-salt rats; 50 mg/kg/day orally for 4 weeks, result in words) was “inhibited significantly from the second week after administration” and the Systolic blood pressure (DOCA-salt rats; day 0) was 121.6 mmHg. The Systolic blood pressure (DOCA-salt rats; day 7) was 140.3 mmHg, the Systolic blood pressure (DOCA-salt rats; day 14) was 165.0* mmHg and the Systolic blood pressure (DOCA-salt rats; day 21) was 182.0* mmHg. For the same compound, the Systolic blood pressure (DOCA-salt rats; day 28) was 193.3* mmHg, the “rate of change of the blood pressure” value (SHR [1]) was “about -13%” and the “blood pressure in comparison with control group” value ([3]; 50 mg/kg/day orally for 3 weeks, result in words) was “decreased significantly from the second week after administration”. The Systolic blood pressure ([3]; day 0, 50 mg/kg/day orally once a day for 3 weeks) was 171.1 mmHg, the Systolic blood pressure ([3]; day 7, 50 mg/kg/day orally once a day for 3 weeks) was 167.4 mmHg and the Systolic blood pressure ([3]; day 14, 50 mg/kg/day orally once a day for 3 weeks) was 168.1* mmHg. The Systolic blood pressure ([3]; day 28 (one week after the 3-week dosing), 50 mg/kg/day orally) was 170.7* mmHg, the “blood pressure in comparison with control group” value (established-SHR; 100 mg/kg/day orally for 3 weeks, result in words) was “decreased significantly from the first week after administration” and the Systolic blood pressure (established-SHR; day 0) was 207.3 mmHg. The Systolic blood pressure (established-SHR; day 7) was 189.6* mmHg, the Systolic blood pressure (established-SHR; day 14) was 201.8* mmHg and the Systolic blood pressure (established-SHR; day 21) was 198.6* mmHg.
In the case of CCOCn1nccc1C(=O)c1ccc(OCC(=O)O)c(Cl)c1Cl [(2), [2,3-dichloro-4-(1-ethoxymethyl-5-pyrazolylcarbonyl)phenoxy]acetic acid], the “rate of change of the blood pressure” value (SHR [1]) is reported as “about -13%”.
In the case of CCOCn1nccc1C(=O)c1ccc(OCC(=O)O)c(Cl)c1Cl [[2,3-dichloro-4-(1-ethoxymethyl-5-pyrazolylcarbonyl)phenoxy]acetic acid], the “decrease of the systolic blood pressure” value (SHR [1]) is reported as “about 13%”.
